Results published in patent US7115597B2, “Tyrosine kinase inhibitors” (Merck & Co., Inc., priority 2000, dated 2006).
Structures can show the parent of a compound that is named as a salt.

melting point	SMILES
285 to 287 °C (dec.)	N#Cc1cnc(Nc2cc(N3CCN(CC(=O)O)CC3)ncn2)s1 (as salt: TFA) [Compound 26-3, (4-{6-[(5-cyano-1,3-thiazol-2-yl)amino]pyrimidin-4-yl}piperazin-1-yl)acetic acid]
> 250 °C	c1ccc(-c2cnc(Nc3ccncn3)s2)cc1 [Compound 1-3, (5-Phenyl-thiazol-2-yl)-pyrimidin-4-yl-amine]
